# Measured values: patent publication US20240299353A1, “COMPOSITIONS AND METHODS FOR TREATING […] 5-MEO-DMT” (Alvarius Pharmaceuticals Ltd., priority 2021, published 2024)
# Tests used:
# [1] = tested on: primary hippocampal neurons; experiment: Structural plasticity of cultured hippocampal neurons, Sholl analysis; type: cell-based, rat; conditions: for normalised AUC of the Sholl plot (dendritic arbor complexity): 24 h 5-MeO-DMT (20 μM) or cocaine (25 μM) alone, vs control; for maximum number of intersections (Nmax): FIG. 38C, all treatment groups
# From the text: Primary Culture—Primary hippocampal neurons were derived from the hippocampi of embryonic day 18 (E18) rat embryos, as described previously (Seibenhener, M. L. & M. W. Wooten (2012) Isolation and Culture of Hippocampal Neurons from Prenatal Mice. Journal of Visualized Experiments: JoVE, 3634). Briefly, the brains were removed from the skull and stored in cooled Hank's Balanced Salt Solution (HBSS). The hippocampus was isolated under a dissection microscope and digested using 0.05% Trypsin (Gibco) in HBSS for 10 mins after which trypsinisation was stopped by the addition of 2% foetal calf serum (Gibco). Isolated cells were suspended in plating media and viable cells were counted with a haemocytometer using trypan blue (Gibco) staining. Cells were plated at a density of 1×10^6 cells/well on 12-well plates coated with 0.02% Poly-DL-ornithine hydrobromide (Sigma). After plating, cells were incubated at 37° C. in humidified air with 5% C02. Half medium changes were performed every 2-3 days with L-glutamic acid no longer included in the media after 3 DIV.
# Immunocytochemistry—Primary hippocampal neurons grown on 18 mm diameter glass coverslips were fixed in 70% ethanol (EtOH) for 20 mins. After fixing, cells were permeabilised in 0.2% Triton X-100 (Thermo Fisher) in PBS and washed in PBS. Cells were blocked in 1% BSA (Sigma) in PBS for 45 mins. Following blocking, cells were incubated with primary antibodies in 5% BSA and 5% normal goat serum (Agilent) for 2 hours in a humidity chamber at room temperature or overnight at 4° C. Cells were rinsed in PBS and incubated with 1 ug/ml 4′,6-Diamidine-2′-phenylindole dihydrochloride (DAPI) (Thermo Fisher) for 10 mins. Coverslips were mounted on microscope slides using mounting medium containing mowiol 4-88 (Sigma), stored in the dark at 4° C. and were imaged within 7 days of mounting. Images were captured on a Zeiss AxioImager M1 fluorescent microscope using a x40 oil immersion lens. 10 images were taken per coverslip and images were analyzed by a customized R script (Appendix I) using EBImage by Bioconductor Ver 3.7. Briefly, DAPI staining was used as a nuclear reference with a threshold of a minimal radius and fluorescent intensity implemented to differentiate DAPI-labelled nuclei against cell debris or non-specific binding. A watershed command in the R script was used to ensure segmentation and identification of nuclei which may be tightly clustered as distinct objects. The nuclei were dilated using kernel expansion to designate the soma region surrounding the nucleus. A distance map was generated for each image which calculates the distance of each foreground pixel (white) to the nearest background pixel (black). Protein expression was measured as the average pixel fluorescence intensity for each cell in each channel. In all experiments cells were stained with an antibody for NeuN, a protein specifically expressed in neurons, to localise protein changes to the neuronal or non-neuronal cellular populations in the culture. Proteins assessed by ICC were 5-HT1AR (FIG. 7A), 5-HT2AR (FIG. 7B).
# Primary hippocampal cultures were grown on 18 mm glass coverslips at a density of 1×10^6 cells as described. On 3 DIV all cells underwent a full medium change. […] On 4 DIV, all cells underwent a second full medium change. Cells in the combination group were treated with 2 μM 5-MeO-DMT for a further 24 hours with all other groups beginning a 24-hour treatment. After treatment was completed the cells were fixed and processed as described below.
# After termination of drug treatment coverslips were processed and imaged as outlined for immunocytochemistry. In all instances NeuN antibody staining was used to visualize projections from the cell body. Images were analyzed using the Simple Neurite Tracer and Sholl analysis plug-ins for ImageJ Fiji. For the Sholl analysis circle radii of 2 μm increments were used. All images were taken and analyzed by an experimenter blinded to treatment conditions. […]
# rats = experiment: Elevated plus maze; type: in vivo
# Method: In this instance the animals were 9 weeks old at the initiation of drug exposures and we selected just the high (20 mg/kg) dose of 5-MeO-DMT from the molecular study. […] Due to the number of behavioral paradigms to be completed by each animal we divided the study into two cohorts staggered by two weeks with 8 animals coming from each cohort to make up the 16 animals for each treatment group. 23 hours after 5-MeO-DMT administration the animals were introduced to the open field arena where they were allowed to freely explore the area for 5 mins. Following the open field test (OFT) animals were returned to their home cage for 2 hours before beginning either the elevated plus maze (EPM) or pre-pulse inhibition (PPI) testing. 24 hours after completing the OFT animals were returned to the chamber for the first session in novel object (NO1) testing. The animals were returned to their home cage for 2 hours before beginning the EPM or PPI test. 24 hours after NO1 the animals returned to the open field chamber for the second session in novel object (N02) testing. After completing N02 animals were returned to their home cage for 2 hours before they underwent the forced swim test (FST) pre-test. 24 hours later the animals were returned to the FS cylinders for the FST. Upon completion of the FST all animals were euthanized. A timeline of this experimental cohort is described in FIG. 8A.
# The experiment was conducted as described for cohort 1 for the first 13 days of injections. There are a number of notable differences in experimental procedures between the two cohorts of animals to be highlighted. […] Finally, the dose of 5-MeO-DMT was reduced to 10 mg/kg. The order and timing of all the behavioral paradigms were kept constant between the cohorts. A timeline of this experimental cohort is described in FIG. 8B. Additionally, 5-MeO-DMT administrations were staggered so animals could be observed for the duration of acute drug effects and to ensure recovery prior to the next animal being injected. The typical symptoms of psychedelic drug administration outlined above were reproduced in all animals administered 5-MeO-DMT.
# Our EPM apparatus consisted of a plus-shaped white plastic platform positioned 100 cm above the ground. Two opposite arms of the maze were bordered by vertical walls measuring 20 cm high, with the other two arms open to the environment with no edges. Animals were placed into the centre of the maze facing a closed arm and allowed to explore freely for 5 min. At the conclusion of the test, rats were returned to their home cages and the apparatus was cleaned with 2% distal. Animal movement was recorded during the trial using Any-Maze software. Time spent in open or closed arms, number of entries into open arms and number of grooming behaviors were all quantified (FIG. 10A-10B). Behavioral assessment was conducted in a quiet room under low-level red-light illumination. Behaviors were scored by two observers blind to experimental conditions.
# [2] = cohort 1, either treatment or the combination
# [3] = cohort 2, either treatment or their combination
SMILES,normalised AUC of the Sholl plot (dendritic arbor complexity) ([1]; FIG. 38B),"normalised AUC of the Sholl plot ([1]; FIG. 38B, 24 h cocaine followed by 24 h 5-MeO-DMT)",maximum number of intersections (Nmax) [1],"average neurite length ([1]; FIG. 38D, cocaine followed by 5-MeO-DMT)","secondary anxiety measures, stretch-attenuated posture (SAP) or head dipping (rats; cohort 1)","total distance travelled, main effect (rats; cohort 1, 5-MeO-DMT p<0.0001)","total distance travelled (rats; cohort 1, cocaine+20 mg/kg 5-MeO-DMT relative to cocaine alone)",duration of time spent in the open arms (rats; [2]),number of entries into the open arms (rats; [2]),"duration of time spent on the open arms (rats; cohort 2, cocaine and 5-MeO-DMT (10 mg/kg) combination relative to control and 5-MeO-DMT alone)",total distance travelled (rats; [3]),"duration of time spent in the open arms (rats; cohort 2, cocaine p=0.0031)","head dipping (rats; cohort 2, cocaine p=0.0054, no post hoc differences)","number of entries into the open arms (rats; cohort 2, cocaine p=0.0055)"
"COc1ccc2[nH]cc(CCN(C)C)c2c1 [5-MeO-DMT, 5-methoxy-N,N-dimethyltryptamine]",increase dendritic arbor complexity,increased the normalised AUC relative to either compound alone,unchanged between treatment groups,significantly increased the average neurite length relative to both the control and cocaine alone treatment groups,no treatment effects,significant effect,reduction in the total distance travelled,unaffected by either treatment or the combination,unaffected by either treatment or the combination,significantly increased,no effect of either treatment or their combination,,,
"COC(=O)[C@H]1[C@@H](OC(=O)c2ccccc2)C[C@@H]2CC[C@H]1N2C.Cl [cocaine, cocaine hydrochloride, reference compound]",increase dendritic arbor complexity,,unchanged between treatment groups,,no treatment effects,,,unaffected by either treatment or the combination,unaffected by either treatment or the combination,,no effect of either treatment or their combination,significantly affected,significantly affected,significantly affected
